According to patent US20040171680A1, “Treating Syndrome X with substituted tetralins and indanes” (priority 2002, published 2004):

Tests used:
PPARδ = molecular target: T1, PPARδ (Homo sapiens, UniProt Q03181); experiment: Transfection Assay for PPARδ Receptors (PPAR-Gal4 / Gal4-Luciferase reporter in HEK293 cells); assay type: cell-based; conditions: values in square brackets
T1 construct: a Gal4-Luciferase reporter is co-transfected
T1 sequence (Q03181 171-441 limits assumed): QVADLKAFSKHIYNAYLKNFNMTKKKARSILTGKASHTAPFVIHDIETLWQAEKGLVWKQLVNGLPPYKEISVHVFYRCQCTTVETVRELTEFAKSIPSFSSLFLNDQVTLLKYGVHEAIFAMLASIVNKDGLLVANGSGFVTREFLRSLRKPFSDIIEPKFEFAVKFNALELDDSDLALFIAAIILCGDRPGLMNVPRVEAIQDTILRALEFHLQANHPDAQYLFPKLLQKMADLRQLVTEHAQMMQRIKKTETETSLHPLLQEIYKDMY
Procedure, shortened: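 HEK293 cells co-transfected with PPAR-Gal4 receptor and Gal4-luciferase reporter, then moved into 5% charcoal-treated FBS medium. Compounds applied for 24 h at 37 °C, 5% CO2; luciferase activity read with Steady-Glo.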

PPARγ = molecular target: T2, PPARγ (Homo sapiens, UniProt P37231); experiment: aP2 Assay for PPAR gamma Agonists (bDNA aP2 mRNA in preadipocytes); assay type: cell-based; conditions: values in square brackets
T2 construct: Following the challenge of the preadipocytes, cells may be lysed with lysis buffer; endogenous in cells; host or cells: preadipocytes
T2 sequence (P37231 1-505): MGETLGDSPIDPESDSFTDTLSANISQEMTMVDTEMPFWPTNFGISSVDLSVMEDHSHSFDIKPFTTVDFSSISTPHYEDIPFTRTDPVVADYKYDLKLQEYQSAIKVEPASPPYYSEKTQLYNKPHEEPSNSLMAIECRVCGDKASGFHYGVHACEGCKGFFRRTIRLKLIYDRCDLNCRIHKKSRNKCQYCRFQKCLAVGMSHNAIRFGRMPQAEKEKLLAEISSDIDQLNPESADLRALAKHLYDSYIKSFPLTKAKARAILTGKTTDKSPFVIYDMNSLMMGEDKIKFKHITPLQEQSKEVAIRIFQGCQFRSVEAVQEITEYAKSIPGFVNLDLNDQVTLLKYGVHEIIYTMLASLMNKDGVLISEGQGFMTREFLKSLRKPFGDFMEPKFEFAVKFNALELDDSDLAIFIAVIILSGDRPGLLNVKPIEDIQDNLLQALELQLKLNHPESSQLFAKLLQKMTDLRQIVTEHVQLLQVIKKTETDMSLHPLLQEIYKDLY

ob/ob mice = experiment: 11 day oral dosing in female ob/ob mice; assay type: in vivo; conditions: 1.0 mpk, once daily oral gavage for 11 days, % change compared to vehicle
Method: 11 Day Dosing of Example in Female, 7 week Old ob/ob Mice
(Female ob/ob mice (C57 BL/6J-Lep^ob, Jackson Labs, Bar Harbor, Me.), 7 weeks of age, were housed two per cage in solid-bottomed shoe box cages. Room temperature was maintained at 68-72° F. and humidity at 50-65%. Room lighting was on a 12-hour light/12-hour dark cycle. Mice were fed a certified NIH Rat and Mouse diet #5K50 (P M I Nutrition Int'l, St. Louis, Mo., via W. F. Fisher and Son, Inc., Bound Brook, N.J.). Food and water were supplied ad libitum.
The compound was prepared as suspensions in 0.5% hydroxypropylmethylcellulose (Dow Chemical, Midland, Mich.). The dosing volume was 10 mL/kg of body weight. Female ob/ob diabetic mice (8/group) were orally gavaged once daily for 11 days with either 0.5% methylcellulose in dH2O (vehicle) or PPAR agonist at 0.003, 0.01, 0.03, 0.1, 0.3, 1 mg/kg/day. Body weight was measured in the mornings on Day 1, prior to dosing, and on Day 12 before bleeding. 18 hours after the final dose for each group, the mice were anesthetized with CO2/O2 (70%:30%) and bled by retro-orbital sinus puncture into micro-tubes containing clog activator and then put in ice. […] Serum glucose and triglycerides were determined by using COBAS Mira Plus blood chemistry analyzer (Roche Diagnostics, N.J.). Serum insulin and free fatty acids were measured by using ALPCO insulin ELISA kit and Wako NEFA kit, respectively. […]

EC50 (PPARδ): > 3 µM | EC50 (PPARγ): > 3 µM
Structure (SMILES): CCN(C(=O)Nc1ccc(OC(F)(F)F)cc1)C1CCc2cc(SC(C)(C)C(=O)O)c(F)cc2C1 (stereo not drawn) [Example 50, 2-{6-[1-Ethyl-3-(4-trifluoromethoxyphenyl)ureido]-3-fluoro-5,6,7,8-tetrahydronaphthalen-2-ylsulfanyl}-2-methylpropionic acid]
Δ Plasma TG (ob/ob mice): −86%
